This is an account of results in US20250346593A1, “IMIDAZO(1,2-1)PYRIDINE DERIVATIVES AS RIPK2 INHIBITORS” (Interline Therapeutics, Inc., priority 2022, published 2025).

Where two headings read alike, the source gives them in different places.

The target in experiment [1] is GST-RIPK2 fusion protein (human RIPK2 amino acids 1-310) (Homo sapiens (Human), UniProt O43353). As to the kind of experiment: RIPK2 binding competition assay (TR-FRET, Tracer 199).
Experiment [2] deals with NF-κB pathway (SEAP) in THP1-Dual cells. In words: THP-1 Dual cell SEAP assay (L18-MDP stimulated). Conditions: Homo sapiens, THP1-Dual, read-out: NFkB THP1 IC50. It counts as cell-based.
[3] abbreviates: read-out: RIPK2 IC50, RIPK2 binding competition assay.

Chain of GST-RIPK2 fusion protein (human RIPK2 amino acids 1-310) (O43353 1-310): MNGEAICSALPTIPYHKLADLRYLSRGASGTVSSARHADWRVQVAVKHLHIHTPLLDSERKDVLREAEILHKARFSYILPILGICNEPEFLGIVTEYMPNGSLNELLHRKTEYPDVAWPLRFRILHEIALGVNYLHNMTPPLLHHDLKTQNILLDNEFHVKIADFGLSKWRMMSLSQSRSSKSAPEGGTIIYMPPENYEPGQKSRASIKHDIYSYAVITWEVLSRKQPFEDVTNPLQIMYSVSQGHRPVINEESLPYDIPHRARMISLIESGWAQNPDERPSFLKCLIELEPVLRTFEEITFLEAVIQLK

As for `COc1cc2ncc(-c3cc(C)c(N)nc3F)n2cc1S(=O)(=O)C(C)(C)C` [Example 96, 5-(6-(tert-butylsulfonyl)-7-methoxyimidazo[1,2-a]pyridin-3-yl)-6-fluoro-3-methylpyridin-2-amine], the half-maximal inhibitory concentration (IC50) in experiment [1] is 2.5 to 20 nM; in experiment [2], 250 to 1000 nM.
As for `COc1cc2ncc(-c3cc(F)nc(NCCN4CCCC4=O)c3)n2cc1S(=O)(=O)C(C)(C)C` [Example 210, 1-(2-((4-(6-(tert-butylsulfonyl)-7-methoxyimidazo[1,2-a]pyridin-3-yl)-6-fluoropyridin-2-yl)amino)ethyl) pyrrolidin-2-one], the concentration for half-maximal inhibition (IC50) in experiment [1] was in the range of 1 to 2.5 nM; in experiment [2] it was 50 to 250 nM.
Turning to `COc1cc2ncc(-c3cc(NS(C)(=O)=O)c(OC)c(OC)c3)n2cc1S(=O)(=O)C(C)(C)C` [Example 285, N-(5-(6-(tert-butylsulfonyl)-7-methoxyimidazo[1,2-a]pyridin-3-yl)-2,3-dimethoxyphenyl)methane sulfonamide], the concentration for half-maximal inhibition (IC50) in experiment [1] (setting [3]) was < 1 nM; in experiment [2], < 50 nM.
For the molecule `COc1cc2ncc(-c3ccc(C)c(N)n3)n2cc1S(=O)(=O)C(C)(C)C` [Example 332, 6-(6-(tert-butylsulfonyl)-7-methoxyimidazo[1,2-a]pyridin-3-yl)-3-methylpyridin-2-amine], the IC50 in experiment [1] (setting [3]) was > 20 nM; in experiment [2], > 1000 nM.
Consider `COc1cc2ncc(-c3cc(F)nc(NCC4CCC(=O)NC4)c3)n2cc1S(=O)(=O)C(C)(C)C` (stereo not drawn) [Example 185, 5-(((4-(6-(tert-butylsulfonyl)-7-methoxyimidazo[1,2-a]pyridin-3-yl)-6-fluoropyridin-2-yl)amino)methyl) piperidin-2-one], for which the IC50 in experiment [1] (setting [3]) is < 1 nM; in experiment [2], < 50 nM.
In the case of `COc1cc2ncc(-c3cnc(N)c(CO)c3)n2cc1S(=O)(=O)C(C)(C)C` [Example 92, (2-amino-5-(6-(tert-butylsulfonyl)-7-methoxyimidazo[1,2-a]pyridin-3-yl)pyridin-3-yl)methanol], the IC50 in experiment [1] (setting [3]) is > 20 nM; in experiment [2], > 1000 nM.
Take `CCCS(=O)(=O)Nc1cc(-c2cnn3cc(OC)c(S(=O)(=O)C(C)(C)C)cc23)cc(OC)c1OC` [Example 140, N-(5-(5-(tert-butylsulfonyl)-6-methoxypyrazolo[1,5-a]pyridin-3-yl)-2,3-dimethoxyphenyl) propane-1-sulfonamide]: the half-inhibitory concentration (IC50) in experiment [1] (setting [3]) was < 1 nM; in experiment [2] it was < 50 nM.
As to `COc1cc2ncc(-c3cc(F)c(OC)c(F)c3)n2cc1S(=O)(=O)C(C)(C)C` [Example 57, 6-(tert-butylsulfonyl)-3-(3,5-difluoro-4-methoxyphenyl)-7-methoxyimidazo[1,2-a]pyridine], the half-inhibitory concentration (IC50) in experiment [1] (setting [3]) is > 20 nM; in experiment [2], > 1000 nM.
With `COc1cc2ncc(-c3cn[nH]c3)n2cc1S(=O)(=O)C(C)(C)C` [Example 4, 6-(tert-butylsulfonyl)-7-methoxy-3-(1H-pyrazol-4-yl)imidazo[1,2-a]pyridine], the IC50 in experiment [1] lay in the range of 2.5 to 20 nM; in experiment [2], 250 to 1000 nM.
With `CCCS(=O)(=O)N(C)c1cccc(-c2cnc3cc(OC)c(S(=O)(=O)C(C)(C)C)cn23)c1` [Example 256, N-(3-(6-(tert-butylsulfonyl)-7-methoxyimidazo[1,2-a]pyridin-3-yl)phenyl)-N-methylpropane-1-sulfonamide], the values for the 50% inhibitory concentration (IC50) in experiment [1] (setting [3]) and in experiment [2] were > 20 nM and > 1000 nM, respectively.
Take `CC(C)(C)S(=O)(=O)c1ccc2ncc(-c3cc(F)nc(F)c3)n2c1` [Example 1, 6-(tert-butylsulfonyl)-3-(2,6-difluoropyridin-4-yl)imidazo[1,2-a]pyridine]: the figures for the IC50 in experiment [1] (setting [3]) and in experiment [2] were > 20 nM and > 1000 nM, respectively.
`COc1cc2ncc(-c3cc(N)nc(C(F)(F)F)c3)n2cc1S(=O)(=O)C(C)(C)C` [Example 6, 4-(6-(tert-butylsulfonyl)-7-methoxyimidazo[1,2-a]pyridin-3-yl)-6-(trifluoromethyl) pyridin-2-amine]: the half-inhibitory concentration (IC50) in experiment [1] was 2.5 to 20 nM; in experiment [2], > 1000 nM.
